Experimental data published in article PMC6156508, “GA-Hecate antiviral properties on HCV whole cycle represent a new antiviral class and open the door for the development of broad spectrum antivirals” (Scientific Reports, 2018).
Where no end group is shown, it is not given here.

Key:
[1] = tested on: HCV subgenomic replicon SGR-Feo-JFH-1 (genotype 2a); experiment: HCV subgenomic replicon replication, luciferase assay (genotype 2a); type: cell-based, hepatitis C virus; conditions: for SI (selectivity index), ratio CC50/EC50 / inhibition of HCV replication at the maximum safe concentration: 48 h, genotype 2a replicon; for EC50: Huh-7.5 harbouring SGR-Feo-JFH-1 genotype 2a, 48 h treatment, 2.5-20 μM, luciferase, triplicate in three independent assays, read-out: EC50 (50% effective concentration for HCV); for inhibition of HCV replication at the maximum safe concentration: at each peptide's maximum safe concentration (Hecate 10 μM; Lys-, Glu-, Acetyl-Hecate 5 μM)
Excerpt: (§1) Figure 2 Hecate and its derivative-peptide effects on subgenomic HCV genotype 2a replication and hepatotoxicity. (A) Hecate. (B) Lys- Hecate. (C) GA-Hecate. (D) GA2-Hecate. (E) Acetyl-Hecate. (F) Glu-Hecate. Luciferase assays report HCV replication and MTT assays report the viability of Huh-7.5 cells harboring SGR-JFH-1 Feo under peptide treatment. Water was used as a negative control of virus replication inhibition and cell death (Control (−)), and Cyclosporine A was used as a positive control for virus replication inhibition (Control (+)). Red dotted lines represent the arbitrary threshold of 80% cell viability, and blue dotted lines represent the maximum inhibition presented by Hecate at the maximum safe concentration. Bars represent triplicates of the three independent assays. ***P < 0.01 vs control (−).
Cell lines harboring subgenomic or genomic replicons were seeded at 5 × 10^3 cells /well on 96-well plates and the compounds were added 24 h post-seeding, in a concentration range between 2.5–20 μM. After 48 h of treatment, the cells were disrupted with 30 μL of passive lysis buffer (Promega, Madison, WI, USA), and luciferase substrate (Promega, Madison, WI, USA) was automatically added to each sample. Luciferase activity was measured using a luminometer (FLUOstar Omega/BMG LABTECH, Offenburg, BW, DE). The same assays were performed in Huh-7.5 cell lines harboring SGR-JFH1 Feo, S52/SG-neo or FL-J6/JFH-50C19Rluc2AUbi. Cyclosporine A (Sigma-Aldrich) at 1 μM was used as positive control of viral replication inhibition and dH2O as negative control.
(§2) GA-Hecate toxicity and viral inhibition profile in 24, 48 and 72h post-treatment in […]
(§3) GA-Hecate toxicity and viral inhibition capacity were evaluated at 24, 48 and 72h post-treatment. Tested concentrations were 1.25; 2.5; 5; 10; 20; and 40 µM. At the end of every incubation, cells were stained using MTT as previously described. Similarly, at every time point, treated cells were lysed using PLB and summited to Luminescence analysis as previously described. […]

[2] = tested on: Huh-7.5 cells harboring SGR-JFH-1 Feo; experiment: MTT cytotoxicity in hepatocytes; type: cell-based, human; conditions: for CC50 (50% cytotoxic concentration): 48 h incubation, SGR-Feo-JFH-1 Huh-7.5 cells, triplicate in three independent assays; for maximum non-toxic (safe) concentration in hepatocytes: arbitrary threshold of 80% cell viability, 48 h
Excerpt: as §1
Peptide cytotoxicity profiles were measured by the MTT [3-(4,5-dimethylthiazol- 2-yl)-2,5-diphenyl tetrazolium bromide] (Sigma–Aldrich) method. Twenty-four hours before treatment, 5 × 10^3 SGR-harboring cell lines (SGR-Feo-JFH-1 or S52/SG-neo) were cultured with supplemented DMEM in a 96-multi-well plate and incubated at 37 °C in a humidified 5% CO2 incubator. On the subsequent day, peptide-containing medium was added at the following final concentrations: 2.5, 5, 10 and 20 μM. The tested peptides were Hecate and its derivatives, which included the following: lysine addition (Lysine-Hecate/Lys-Hecate); one or two molecules of Gallic Acid (GA-Hecate and GA2-Hecate); one acetyl radical (Acetyl-Hecate) or Glutamic acid (Glu-Hecate). After 48 h of incubation, peptide-media was removed, and MTT at a final concentration of 1 mg/mL was added to the wells, incubated for 30 minutes and subsequently replaced by 100 μL of DMSO. Absorbance was measured at 562 nm, using a plate spectrophotometer (FLUOstar Omega/BMG LABTECH, Offenburg, BW, DE). Cell viability was calculated considering water-treated cells (peptides diluent) as a negative control. All experiments were performed in triplicate and in three independent replicates. Further assays were performed considering at least 80% viability of the treated cells.
as §2, §3

Compound | SI (selectivity index), ratio CC50/EC50 [1] | EC50 [1] [µM] | CC50 (50% cytotoxic concentration) [2] [µM] | maximum non-toxic (safe) concentration in hepatocytes [2] [µM] | inhibition of HCV replication at the maximum safe concentration [1]
CC(C)C[C@H](NC(=O)[C@H](C)NC(=O)[C@H](CCCCN)NC(=O)[C@H](CCCCN)NC(=O)[C@H](CC(C)C)NC(=O)[C@H](C)NC(=O)[C@H](CCCCN)NC(=O)[C@H](CCCCN)NC(=O)[C@H](CC(C)C)NC(=O)[C@H](CCCCN)NC(=O)[C@H](CCCCN)NC(=O)[C@H](CC(C)C)NC(=O)[C@H](C)NC(=O)[C@H](CCCCN)NC(=O)[C@H](CCCCN)NC(=O)[C@H](CC(C)C)NC(=O)[C@H](C)NC(=O)[C@H](CCCCN)NC(=O)[C@H](CC(C)C)NC(=O)[C@H](C)NC(=O)[C@H](CC(C)C)NC(=O)[C@H](C)NC(=O)[C@H](Cc1ccccc1)NC(=O)[C@@H](N)CCCCN)C(N)=O [Lys-Hecate] | 3.06 | 2.6 | 7.97 | 5 | 
Ac-FALALKALKKALKKLKKALKKAL-NH2 [Acetyl-Hecate] |  | 3.79 | 9.43 | 5 | approximately 65%
FALALKALKKALKKLKKALKKAL-NH2 [Hecate] | 1.42 | 8.57 | 12.17 | 10 | 
H-EFALALKALKKALKKLKKALKKAL-NH2 [Glu-Hecate] | 2.76 | 3.3 | 9.12 | 5 | approximately 65%
